The text below walks through data of patent US20250043349A1, “DEORPHANIZING ODORS USING SINGLE CELL SEQUENCING” (PRESIDENT AND FELLOWS OF HARVARD COLLEGE, priority 2021, published 2025).

The subject of one assay is OSN subtypes. As to the kind of experiment: Persistence of transcriptional changes: 2 h odor exposure, 22 h home cage, scSeq ES scores. In kind it is in vivo, mouse. Conditions: two-hour exposure, measured after 24 hours. The protocol: Act-Seq (Wu et al., 2017) was performed following odor exposure to quantify odor-evoked responses in each OSN subtype (defined by their expressed OR) across the entire OR repertoire. Mice were habituated to a reversed light cycle for at least for 1 week before odor exposure, transferred to a new disposable cage with regular bedding/food and kept overnight in a satellite animal facility. On the experimental day, each mouse was first transferred to a new empty disposable cage during the dark cycle and habituated for 20 minutes. Empty cages were used to avoid any activation by odorants present within the environments in which the mice were housed. Odors were added to a piece of filter paper (100 μL of odorant) in a 35 mm petri dish and a cotton ball (200 μL of odorant) and placed in each cage. After 2 hours, mice were euthanized, and dissociation was performed as described below. Odors used in this study were as follows. […]
Changes in ES scores were evaluated by comparing the ES scores for each OSN subtype across experimental conditions. […] The changes in ES scores and z-scored functional gene expression across conditions for each OSN subtype are described. The relative ES score change for each OSN subtype was calculated by subtracting the mean across all OSN subtypes, to normalize for any global changes across conditions that were present across the population of OSNs.

Assay [1] concerns acetophenone-responsive OSN subtypes. As to the kind of experiment: Environment switch followed by Act-Seq. In kind it is in vivo, mouse. Conditions: 2 weeks after switch from home cage to new odor environment. The protocol: To examine environment-dependent changes in gene expression and their effects on odor-evoked responses. Act-Seq was performed 2 weeks after environment switches. Adult mice (6-12 weeks old) were group-housed in the regular home-cage environment for at least one week before the transfer to their novel environments. Individual mice were transferred to a new disposable cage containing materials for a novel environment in the satellite animal facility. Two different novel environments were used, with each containing non-overlapping contents; Environment A (paper bedding, hay, dried flowers (such as marigold), peanuts, seeds (e.g., sunflower seeds, pumpkin seeds), puffed rice), and Environment B (garden soil, aspen shavings, coconut husks, dried fruits (e.g., berries, mango, pineapple), dried vegetables (e.g., green peas, corn, bell peppers), millet, fresh fruits (banana, apple, peach), corn flakes). Mice were singly-housed throughout the entire 2 weeks and were transferred to newly prepared environmental cages every 12 hours to minimize the contributions of any murine odors, which are likely the predominant odorants present within standard home-cage housing environments. After 2 weeks, individual mice were transferred to new empty disposable cages, and Act-Seq using acetophenone was performed as above.

Another assay concerns Olfr923. Conditions: Hu et al. 2020; Jiang et al. 2015; cited from earlier work.
For assay [2], the system named is OSN subtypes (odorant receptors, ORs). As to the kind of experiment: Act-Seq: scSeq of olfactory epithelium after two-hour odor exposure (IEG expression, activated ORs, activation score). In kind it is in vivo, mouse. The protocol:
Act-Seq (Wu et al., 2017) was performed following odor exposure to quantify odor-evoked responses in each OSN subtype (defined by their expressed OR) across the entire OR repertoire. Mice were habituated to a reversed light cycle for at least for 1 week before odor exposure, transferred to a new disposable cage with regular bedding/food and kept overnight in a satellite animal facility. On the experimental day, each mouse was first transferred to a new empty disposable cage during the dark cycle and habituated for 20 minutes. Empty cages were used to avoid any activation by odorants present within the environments in which the mice were housed. Odors were added to a piece of filter paper (100 μL of odorant) in a 35 mm petri dish and a cotton ball (200 μL of odorant) and placed in each cage. After 2 hours, mice were euthanized, and dissociation was performed as described below. Odors used in this study were as follows. Dipropylene glycol (DPG, control solvent), and 10% of acetophenone, octanal, 2-hydroxy acetophenone, 4-methyl acetophenone, and methyl salicylate. As a control, mice were exposed to DPG alone for 30 min. This control condition was used to account for any drift in transcriptomes during the overnight housing and habituation periods prior to odor exposure and designed to capture the transcriptome in the state it would have been in the odor-exposed animals prior to odor exposure. […] Act-Seq was also performed using lower concentrations of acetophenone (1.0, 0.1, 0.01%) and 2-hydroxy acetophenone (0.1%, 0.01%). All odor dilutions were made with DPG, and all odors and DPG were obtained from Sigma. To assess the persistence of any transcriptional changes observed as a result of odor exposure, a cohort of mice was exposed to acetophenone or DPG for 2 hours, transferred to new clean regular home cages, and subjected to scSeq after an additional 22 hours.
The main olfactory epithelium was dissected in Earle's Balanced Salt Solution (EBSS, pre-treated with carbogen for at least 5 minutes before each use, Worthington), then transferred to a round-bottomed glass dish containing 750 μL of papain solution (one vial of Papain (Worthington) dissolved in 5 mL of EBSS and then equilibrated 10 minutes at 37° C.) and 100 μL of DNase solution (one vial of DNase-I (Worthington) dissolved in 500 μL of EBSS). Bone was removed from the epithelium under a dissecting microscope and the resulting epithelial tissue was placed in a 5 mL tube (Becton Dickinson) with an additional 1.75 mL of Papain solution and 200 μL of DNase-I solution and rocked gently for-60 minutes at 37° C. The tissue was then gently triturated with a 5 mL pipette 10-15 times, passed through a 40 μm cell strainer (Becton Dickinson), and washed with 1 mL of Hibernate-A medium containing 10% Fetal Bovine Serum (FBS. GIBCO). Filtered cells were transferred to a new 5 mL tube and centrifuged 5 minutes at 300×g. The supernatant was decanted, the cells were washed once with 4 mL Hibernate-A containing 10% FBS and resuspended in 1 mL Hibernate-A containing 0.2% FBS. Importantly, each of the solutions above contained transcriptional inhibitors (5 μg/mL of Actinomycin D, 10 μg/mL of Anisomycin and 10 μM of Triptolide, all obtained from Sigma) for all experiments, especially the Act-Seq experiments, except where noted.
OSN subtypes that were responsive to odorants were identified via a two-step process. First, individual OSNs (as defined by the expressed OR) were determined as activated based on their mean z-scored immediate early genes (IEG) expression. A set of 10 IEGs were used (Btg2, Egr1, Fos, Fosb, Gm13889, Junb, Nr4a1, Nr4a2, Pcdh10, and Srxn1). […] The set of 10 IEGs was used since even though all of the IEGs were specific to acute activation by odors, they were still only detected in a minority of cells due to the sparse nature of scSeq. […]

Where [3] appears, read: acetophenone concentration series 0.01-10%.

With `CC(=O)c1ccccc1` [acetophenone], the “ES scores after transient exposure” value in the assay with OSN subtypes was “did not change ES scores after 24 hours”. The “acetophenone-driven OSN activation scores across odor environments” value in assay [1] was “altered acetophenone-driven OSN activation scores in an environment-dependent manner”. Besides, the “affinity for Olfr923” value with Olfr923 was “high affinity”. Also, the “percent of cells activated per OR on average, 5 partially activated ORs identified only by phospho-S6” value in assay [2] (Act-Seq, ORs identified as acetophenone receptors) was 43.8%. Besides, the “overlap between ORs activated by ACE and OCT, odds ratio” value in assay [2] (Fisher's exact test, overlap at chance levels) turned out to be 1.42. Moreover, in assay [2] (setting [3]), the “activation scores of acetophenone-responsive OSNs with increasing concentrations” value is “tonically increased” and the “number of ORs activated with increasing concentrations” value is on record as “tonically increased”. For the same compound, the “z-scored expression of 10 immediate early genes (IEGs) for each OSN subtype, odor vs control” value in assay [2] (odor vs control (DPG) conditions) is recorded as “higher in the odor conditions”.
